Here are results for six compounds from ChEMBL document CHEMBL1139522, “Methyl pyropheophorbide-a analogues: potential fluorescent probes for the peripheral-type benzodiazepine receptor. Effect of central metal in photosensitizing efficacy” (J Med Chem, 2005).

pIC50: −log10 of the molar value.

The species entered for assay [1] is Mus musculus. As to the kind of experiment: In vitro photodynamic therapy efficacy (0.06 uM) in RIF tumor cells using MTT assay; expressed as light dose. It counts as functional. (Tetrazolium assays rely on reduction of a dye to a coloured formazan, in cell work by metabolically active cells.)
Assay [2] is filed under the species Mus musculus. As to the kind of experiment: In vitro photodynamic therapy efficacy (1.0 uM) in RIF tumor cells using MTT assay; expressed as light dose. It counts as functional.
A short description of assay [3]: Displacement of [3H]PK11195 from peripheral benzodiazepine receptor. (In a radioligand displacement assay an active substance lowers the binding of a labelled ligand.)

In general, pIC50 refers to the IC50 on a negative log10 scale, so that one unit is a factor of ten. Lower therefore signals a large IC50. In the case of `C=Cc1c(C)c2[n]3c1=CC1=[N+]4C(=Cc5c(C)c6c7[n]5[Zn-2]34[N+]3=C(C=2)[C@@H](C)[C@H](CCC(=O)OC)C3=C7CC6=O)C(CC)=C1C` (stereo partly drawn), the LD50 in the assay filed under Mus musculus [1] is recorded as >2 J/cm2; in the assay listed under Mus musculus [2] it was 0.7 J/cm2. The same compound had a pIC50 in assay [3] of 5.54.

`CCC(C)N(C)C(=O)c1cc2ccccc2c(-c2ccccc2Cl)n1` (stereo not drawn) [PK-11195]: in assay [3], the pIC50 was 6.41.

In the assay listed under Mus musculus [1], `CCCCCCOC(C)C1=C(C)c2cc3nc(c4c5[nH]c(cc6[nH]c(cc1n2)c(C)c6CC)c(C)c5C(=O)C4)[C@@H](CCC(=O)OC)[C@@H]3C` (stereo partly drawn) registered an LD50 of 0.43 J/cm2. This compound also showed a negative logarithm of the IC50 (pIC50) in assay [3] of 4.77.

In the case of `C=Cc1c(C)c2cc3nc(c4c5nc(cc6[nH]c(cc1[nH]2)c(C)c6CC)C(C)=C5C(=O)C4)[C@@H](CCC(=O)OC)[C@@H]3C`, the LD50 in the assay filed under Mus musculus [1] is >2 J/cm2; in the assay filed under Mus musculus [2], “Toxic”. This compound had a pIC50 in assay [3] of 5.74.

In the case of `C=Cc1c(C)c2cc3nc(c4c5nc(cc6[nH]c(cc1[nH]2)c(C)c6CC)C(C)=C5C(=O)C4)[C@@H](CCC(=O)NCCCCCCNc1ccc([N+](=O)[O-])c2nonc12)[C@@H]3C`, the LD50 in the assay filed under Mus musculus [1] and in the assay listed under Mus musculus [2] was >2 J/cm2 in each case. The pIC50 in assay [3] was 4.43.

With `O=C(Cc1c[nH]c2ccccc12)NCCCCCCNc1ccc([N+](=O)[O-])c2nonc12`, the pIC50 in assay [3] was 6.49.
